Where two headings read alike, the source gives them in different places. No end group written: not given here.

One series deals with T1, ACE1 (Homo sapiens, UniProt P12821).
T1 construct: purchased Dojindo Laboratories
The series can be described thus: In vitro ACE1 inhibition assay (colorimetric ACE1 Kit-WST, absorbance 450 nm). It counts as biochemical. The procedure:
ACE1 inhibition was measured using the absorbance-based colorimetric ACE1 Kit-WST (Dojindo Laboratories, Mashiki-machi, Japan) according to the kit instructions. […] The 18 peptides (Table 2) were initially screened in a single run at concentrations of 0, 10, 50, 100, 200, and 500 µM. […] In a 96-well microplate, 20 µL of each hemorphin concentration was pipetted into each well. In addition, 20 µL and 40 µL of deionized water were pipetted into blank 1 and blank 2 wells, respectively, and 20 µL of substrate buffer and 20 µL of enzyme working solution were pipetted into each sample well and blank 1 well.
The microplate was incubated at 37 °C for 1 h. After incubation, 200 µL of indicator working solution was pipetted to each well and then incubated for 5 min at room temperature.
The absorbance was then measured at 450 nm using a Glomax Discover Microplate Reader (Promega, Madison, WI, USA). ACE1 inhibition was measured using the equation given below: Inhibitionrate%=Blank1-Sample/Blank1-Blank2×100 where Blank1 (without a sample but with enzyme working solution) and Blank2 (without a sample and no enzyme working solution) are 20 µL and 40 µL deionized water, respectively.
The half-maximal inhibitory concentration (IC50) was determined using GraphPad Prism version 9 (GraphPad, San Diego, CA) from a nonlinear regression inhibition plot against the peptide concentration.

Series [1] is described as follows: Dissolution of purchased peptides during sample preparation. The format is physicochemical. To be noted: sample preparation for ACE1 screening. On the procedure: All the purchased peptides were screened in an initial run at 0, 10, 50, 100, 200, and 500 µM.
A further series has as its system ACE2. More on the design: method as in printed at the sentence. The note with it: clinically used ACE1 inhibitors; background statement, ref not given; cited from earlier work.
[2] abbreviates: IC50 (μM) ± SD against ACE1, mean ± SD of three independent experiments (triplicate runs).
Where [3] appears, read: IC50 values of initial single-run peptide screening, single run at 0, 10, 50, 100, 200 and 500 µM, unit not given for IC50.

T1 sequence (P12821 30-1306): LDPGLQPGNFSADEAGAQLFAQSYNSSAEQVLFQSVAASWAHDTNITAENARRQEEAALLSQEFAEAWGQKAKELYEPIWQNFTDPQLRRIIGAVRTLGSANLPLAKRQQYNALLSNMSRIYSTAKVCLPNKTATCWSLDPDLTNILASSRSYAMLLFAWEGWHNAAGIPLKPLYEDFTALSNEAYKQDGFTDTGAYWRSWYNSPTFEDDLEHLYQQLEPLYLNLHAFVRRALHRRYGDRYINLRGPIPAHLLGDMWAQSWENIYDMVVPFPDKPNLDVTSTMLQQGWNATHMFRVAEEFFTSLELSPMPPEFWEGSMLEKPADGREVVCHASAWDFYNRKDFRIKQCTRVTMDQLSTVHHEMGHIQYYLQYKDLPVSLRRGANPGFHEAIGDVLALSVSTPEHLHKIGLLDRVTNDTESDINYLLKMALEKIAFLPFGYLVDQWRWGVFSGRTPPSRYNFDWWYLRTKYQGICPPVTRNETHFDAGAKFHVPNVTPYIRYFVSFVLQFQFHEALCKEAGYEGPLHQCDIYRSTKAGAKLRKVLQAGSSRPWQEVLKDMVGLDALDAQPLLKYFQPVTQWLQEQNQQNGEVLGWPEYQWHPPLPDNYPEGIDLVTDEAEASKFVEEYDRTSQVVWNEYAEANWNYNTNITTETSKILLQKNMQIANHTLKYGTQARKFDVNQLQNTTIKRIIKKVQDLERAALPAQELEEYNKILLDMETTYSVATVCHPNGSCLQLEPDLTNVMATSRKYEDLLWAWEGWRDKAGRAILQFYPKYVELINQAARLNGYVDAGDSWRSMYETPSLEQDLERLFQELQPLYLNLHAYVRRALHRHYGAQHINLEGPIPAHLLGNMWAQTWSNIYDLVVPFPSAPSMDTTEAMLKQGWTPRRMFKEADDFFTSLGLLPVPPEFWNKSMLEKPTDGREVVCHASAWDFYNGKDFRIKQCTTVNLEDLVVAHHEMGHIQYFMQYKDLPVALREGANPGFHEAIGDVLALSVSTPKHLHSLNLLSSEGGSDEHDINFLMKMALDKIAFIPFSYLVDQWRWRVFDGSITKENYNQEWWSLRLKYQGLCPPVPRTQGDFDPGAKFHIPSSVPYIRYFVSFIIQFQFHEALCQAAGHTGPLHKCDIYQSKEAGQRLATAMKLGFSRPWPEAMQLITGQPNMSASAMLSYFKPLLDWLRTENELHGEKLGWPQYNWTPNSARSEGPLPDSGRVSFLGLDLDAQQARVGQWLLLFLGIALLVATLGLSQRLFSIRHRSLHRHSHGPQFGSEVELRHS

By IC50 is commonly meant the midpoint of a concentration-inhibition curve. A high value points to a need for much substance. With YPWTR [Camel Hem5, Tyr-Pro-Trp-Thr-Arg], the IC50 against ACE1 was determined as 78.8 µM.
As to LVVYPWTQ [LVVHem5], the results for the IC50 on ACE1 (setting [2]) and on ACE1 (setting [3]) were 20.1 ± 1.33 µM and 36.7 µM, respectively.
In the same order, the values of LVVYPWTR [Camel LVVHem5] are 6.88 ± 1.89 µM and 21.2 µM.
In the case of “YPWTRRF [Camel Hem7, Tyr-Pro-Trp-Thr-Arg-Arg-Phe]”, the IC50 against ACE1 (setting [2]) was determined as 23.6 ± 3.7 µM; against ACE1 (setting [3]), 44.1 µM.
VVYPWTRR [Camel VVHem6]: on ACE1 (setting [3]), half-maximal inhibition (IC50) required 44.1 µM.
Take “Tyr-Pro-Trp-Thr-Gln (YPWTQ; printed: Tyr-Pro-Trp-Thr-Gln) [Hem5]”: the “Dissolution during sample preparation” value in series [1] is recorded as “did not dissolve”.
`NCCCC[C@H](N[C@@H](CCc1ccccc1)C(=O)O)C(=O)N1CCC[C@H]1C(=O)O` [lisinopril]: the “Activity against ACE2” value in the series with ACE2 was “inactivity”.
Take Tyr-Pro-Trp-Thr [Hem4]: the “IC50 values of initial single-run peptide screening” value on ACE1 (single run at 0, 10, 50, 100, 200 and 500 µM, unit not given for IC50) is recorded as “No IC50”.
For YPWTRR [Camel Hem6], in series [1], the “Dissolution during sample preparation” value is recorded as “did not dissolve”.
Consider `CC(C)C[C@H](N)C(=O)N[C@H](C(=O)N[C@H](C(=O)N[C@@H](Cc1ccc(O)cc1)C(=O)N1CCC[C@H]1C(=O)N[C@@H](Cc1c[nH]c2ccccc12)C(=O)N[C@H](C(=O)N[C@@H](CCC(N)=O)C(=O)N[C@@H](CCCNC(=N)N)C(=O)N[C@@H](Cc1ccccc1)C(=O)O)[C@@H](C)O)C(C)C)C(C)C` [LVVHem7], for which the values for the IC50 on ACE1 (setting [2]) and against ACE1 (setting [3]) were 13.1 ± 2.87 µM and 29.3 µM, respectively.
On the same counts, the results for VVYPWTQR [VVHem6] are 12.7 µM and 30.3 µM.
In the case of LVVYPWTRR [Camel LVVHem6], the values for the IC50 against ACE1 (setting [2]) and at ACE1 (setting [3]) were 5.12 ± 0.7 µM and 25.9 µM, respectively.
As to “YPWTQRF [Hem7, Tyr-Pro-Trp-Thr-Gln-Arg-Phe]”, the midpoint of inhibition on ACE1 (setting [3]), the IC50, lay at 95.1 µM.
On to `C[C@H](CS)C(=O)N1CCC[C@H]1C(=O)O` [captopril], for which the “Activity against ACE2” value in the series with ACE2 is listed as “inactivity”.
As to `CC(C)C[C@H](N)C(=O)N[C@H](C(=O)N[C@H](C(=O)N[C@@H](Cc1ccc(O)cc1)C(=O)N1CCC[C@H]1C(=O)N[C@@H](Cc1c[nH]c2ccccc12)C(=O)N[C@H](C(=O)N[C@@H](CCCNC(=N)N)C(=O)N[C@@H](CCCNC(=N)N)C(=O)N[C@@H](Cc1ccccc1)C(=O)O)[C@@H](C)O)C(C)C)C(C)C` [Camel LVVHem7], the IC50 on ACE1 (setting [2]) is 11.1 ± 2.18 µM; against ACE1 (setting [3]), 25.8 µM.
Consider VVYPWTRRF [Camel VVHem7], for which it took 51.4 µM to reach half-maximal inhibition on ACE1 (setting [3]) (IC50).
At ACE1 (setting [3]), YPWTQR [Hem6, Tyr-Pro-Trp-Thr-Gln-Arg] showed a half-maximal inhibitory concentration (IC50) of 80.2 µM.
For LVVYPWTQR [LVVHem6], the IC50 amounted to 6.45 µM against ACE1 (setting [2]) and 14.9 µM against ACE1 (setting [3]).

Source of the values: PMC9987361, “Interaction of hemorphins with ACE homologs” (Scientific Reports, 2023).
